# Results taken from US20210317140A1, “Heterocyclic Compounds and Methods of Use” (MEDIVATION TECHNOLOGIES, INC, priority 2013, published 2021).
# What was measured:
# CD69+B220+ cells = assay: B cell activation assay (IgD-stimulated splenocytes, CD69+B220+ cells by FACS); format: cell-based; settings: IgD 3 μg/mL, 4 h; for CD69 @ 100 nM (% Inh): 100 nM compound
# In short: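 Mouse splenocytes (female, ~2 months), red cells lysed, at 10^6 cells/mL, pretreated 30 min at 37 °C with 100 nM compound, then anti-IgD 3 μg/mL for 4 h. Read as CD69+B220+ cells as percentage of live B220+ cells by flow cytometry.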
# ITK = molecular target: T1, ITK (Homo sapiens, UniProt Q08881); assay: ITK kinase profiling (BTK protocol); format: biochemical; settings: for IC50: 10 dose IC50; for ITK @ 0.3 μM (% Inh): 0.3 μM compound
# T1 construct: purchased Reaction Biology Corporation
# T1 sequence (Q08881 1-620): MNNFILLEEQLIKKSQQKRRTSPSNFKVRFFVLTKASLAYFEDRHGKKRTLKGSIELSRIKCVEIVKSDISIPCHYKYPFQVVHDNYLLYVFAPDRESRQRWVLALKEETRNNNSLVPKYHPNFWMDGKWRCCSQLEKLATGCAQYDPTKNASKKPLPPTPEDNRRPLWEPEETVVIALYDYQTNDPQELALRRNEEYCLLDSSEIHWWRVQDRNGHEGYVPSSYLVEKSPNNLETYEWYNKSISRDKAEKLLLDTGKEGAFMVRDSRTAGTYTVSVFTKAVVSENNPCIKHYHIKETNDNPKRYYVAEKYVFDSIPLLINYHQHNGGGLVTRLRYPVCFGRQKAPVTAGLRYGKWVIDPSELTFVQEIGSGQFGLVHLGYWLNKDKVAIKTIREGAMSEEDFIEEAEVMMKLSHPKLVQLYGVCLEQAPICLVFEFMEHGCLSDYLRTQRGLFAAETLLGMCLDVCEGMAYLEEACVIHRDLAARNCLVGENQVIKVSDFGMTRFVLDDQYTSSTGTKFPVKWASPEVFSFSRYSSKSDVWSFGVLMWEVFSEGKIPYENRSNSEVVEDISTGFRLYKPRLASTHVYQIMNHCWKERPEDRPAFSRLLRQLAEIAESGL
# Description: BTK assay: In vitro profiling protein kinases was performed using the “HotSpot” assay platform. Briefly, specific kinase/substrate pairs along with required cofactors were prepared in reaction buffer. Compounds were prepared as 10 mM stock solutions in DMSO. Compounds were delivered into the reaction, followed 15-20 minutes later by addition of a mixture of ATP (Sigma, St. Louis Mo.) and ^33P ATP (Perkin Elmer, Waltham Mass.) to a final concentration of 10 μM. […] IC50 values and curve fits were obtained using Prism (GraphPad Software). Buffer Conditions: 20 mM Hepes (pH 7.5), 10 mM MgCl2, 1 mM EGTA, 0.02% Brij35, 0.02 mg/mL BSA, 0.1 mM Na3VO4, 2 mM DTT, 1% DMSO.
ITK @ 0.3 μM (% Inh) (ITK),SMILES,CD69 @ 100 nM (% Inh) (CD69+B220+ cells; mouse splenocytes),also measured
,"Nc1ncnc2c1c(-c1ccc(Br)c(O)c1)nn2C1Cc2ccccc2C1 [compound 2, 5-(4-amino-1-(2,3-dihydro-1H-inden-2-yl)-1H-pyrazolo[3,4-d]pyrimidin-3-yl)-2-bromophenol]",22.52 ± 18.41 (n = 5) % Inh,IC50 (ITK): > 100000 nM
−3.49,"Nc1ncnc2c1c(-c1cc(O)c(F)c(Cl)c1)cn2C1Cc2ccccc2C1 [compound 110, 5-[4-amino-7-(2,3-dihydro-1H-inden-2-yl)-7H-pyrrolo[2,3-d]pyrimidin-5-yl]-3-chloro-2-fluorophenol]",−11.51 ± 15.89 (n = 3) % Inh,
−3.29,"Nc1ncnc2c1c(-c1ccc3cc[nH]c3c1)nn2C1CCc2ccccc2C1 (racemic) [compound 18, 3-(1H-indol-6-yl)-1-(1,2,3,4-tetrahydronaphthalen-2-yl)-1H-pyrazolo[3,4-d]pyrimidin-4-amine]",13.22 ± 11.84 (n = 5) % Inh,
−5.41,"Nc1ncnc2c1c(-c1cc(O)c(Cl)c(Cl)c1)cn2C1Cc2ccccc2C1 [Compound No. 107, 5-[4-amino-7-(2,3-dihydro-1H-inden-2-yl)-7H-pyrrolo[2,3-d]pyrimidin-5-yl]-2,3-dichlorophenol]",−0.20 ± 16.10 (n = 3) % Inh,
2.15,"Nc1ncnc2c1c(-c1ccc(F)c(O)c1)nn2C1CCc2ccccc2C1 (racemic) [Compound No. 26, 5-(4-amino-1-(1,2,3,4-tetrahydronaphthalen-2-yl)-1H-pyrazolo[3,4-d]pyrimidin-3-yl)-2-fluorophenol]",,
6.31,"C=CC(=O)N1CC(n2nc(-c3cc(O)cc(F)c3)c3c(N)ncnc32)Cc2cc(C)ccc21 (single isomer, unassigned) [31b, 1-(3-(4-amino-3-(3-fluoro-5-hydroxyphenyl)-1H-pyrazolo[3,4-d]pyrimidin-1-yl)-6-methyl-3,4-dihydroquinolin-1(2H)-yl)prop-2-en-1-one]",,"CD69 @ 100 nM (% Inh) (CD69+B220+ cells; mouse splenocytes, 0.1 µM): −13.21 ± 4.55 (n = 3) % Inh"
−2.77,"Nc1ncnc2c1c(-c1cc(O)c(F)c(F)c1)cn2C1Cc2ccccc2C1 [Compound No. 101, 5-[4-amino-7-(2,3-dihydro-1H-inden-2-yl)-7H-pyrrolo[2,3-d]pyrimidin-5-yl]-2,3-difluorophenol]",−12.35 ± 33.92 (n = 5) % Inh,
−2.3,"Nc1ncnc2c1c(-c1cc(F)c3c(c1)NCCO3)nn2C1Cc2ccccc2C1 [Compound No. 84, 1-(2,3-dihydro-1H-inden-2-yl)-3-(8-fluoro-3,4-dihydro-2H-1,4-benzoxazin-6-yl)-1H-pyrazolo[3,4-d]pyrimidin-4-amine]",47.61 ± 24.72 (n = 15) % Inh,"IC50 (CD69+B220+ cells; Mus musculus, Splenocyte): 154 nM"
−9.43,"N#Cc1cc(-c2cn(C3Cc4ccccc4C3)c3ncnc(N)c23)cc(O)c1F [compound 115, 5-[4-amino-7-(2,3-dihydro-1H-inden-2-yl)-7H-pyrrolo[2,3-d]pyrimidin-5-yl]-2-fluoro-3-hydroxybenzonitrile]",44.51 ± 5.23 (n = 3) % Inh,
112.3,"Nc1ncnc2c1c(-c1ccc(Cl)c(O)c1F)nn2C1Cc2ccccc2C1 [Compound No. 100, 3-[4-amino-1-(2,3-dihydro-1H-inden-2-yl)-1H-pyrazolo[3,4-d]pyrimidin-3-yl]-6-chloro-2-fluorophenol]",27.39 ± 22.07 (n = 5) % Inh,
2.1,"Nc1ncnc2c1c(-c1cc(O)c(F)c(F)c1)nn2C1Cc2ccccc2C1 [Compound No. 81, 5-[4-amino-1-(2,3-dihydro-1H-inden-2-yl)-1H-pyrazolo[3,4-d]pyrimidin-3-yl]-2,3-difluorophenol]",88.08 ± 32.59 (n = 5) % Inh,"IC50 (CD69+B220+ cells; Mus musculus, Splenocyte): 106 ± 50.8 nM"
,"Nc1ncnc2c1c(-c1cc(O)cc(F)c1)nn2C1CCc2ccccc2C1 (single isomer, unassigned) [6b, 3-(4-amino-1-(1,2,3,4-tetrahydronaphthalen-2-yl)-1H-pyrazolo[3,4-d]pyrimidin-3-yl)-5-fluorophenol]",,"CD69 @ 100 nM (% Inh) (CD69+B220+ cells; mouse splenocytes, 0.1 µM): 68.73 ± 21.60 (n = 6) % Inh; IC50 (CD69+B220+ cells; mouse splenocytes): 118 ± 104 nM; ITK @ 0.3 μM (% Inh) (ITK; 0.3 µM): 0.04 % Inh"
,"Nc1ncnc2c1c(-c1cc(O)cc(F)c1)nn2C1CCc2ccccc2C1 (single isomer, unassigned) [6a, 3-(4-amino-1-(1,2,3,4-tetrahydronaphthalen-2-yl)-1H-pyrazolo[3,4-d]pyrimidin-3-yl)-5-fluorophenol]",,"CD69 @ 100 nM (% Inh) (CD69+B220+ cells; mouse splenocytes, 0.1 µM): 64.71 ± 19.01 (n = 6) % Inh; IC50 (CD69+B220+ cells; Mus musculus, Splenocyte): 107 ± 26.2 nM; ITK @ 0.3 μM (% Inh) (ITK; 0.3 µM): 4.58 % Inh"
,"Nc1ncnc2c1c(-c1ccc(F)c(O)c1)nn2C1Cc2ccccc2C1 [Compound No. 29, 5-(4-amino-1-indan-2-yl-pyrazolo[3,4-d]pyrimidin-3-yl)-2-fluoro-phenol]",17.76 ± 20.69 (n = 9) % Inh,IC50 (ITK): > 100000 nM
8.82,"Nc1ncnc2c1c(-c1ccc(Cl)c(O)c1)nn2C1Cc2ccccc2C1 [Compound No. 56, 5-[4-amino-1-(2,3-dihydro-1H-inden-2-yl)-1H-pyrazolo[3,4-d]pyrimidin-3-yl]-2-chlorophenol]",20.57 ± 19.79 (n = 9) % Inh,
−6.84,"COc1ccc(-c2nn(C3Cc4ccccc4C3)c3ncnc(N)c23)cc1O [Compound No. 68, 5-[4-amino-1-(2,3-dihydro-1H-inden-2-yl)-1H-pyrazolo[3,4-d]pyrimidin-3-yl]-2-methoxyphenol]",44.83 ± 29.77 (n = 6) % Inh,
5.31,"Nc1ncnc2c1c(-c1cc(O)cc(F)c1)nn2C1Cc2ccc(F)cc2C1 (stereo not drawn) [compound 57, 3-[4-amino-1-(5-fluoro-2,3-dihydro-1H-inden-2-yl)-1H-pyrazolo[3,4-d]pyrimidin-3-yl]-5-fluorophenol]",64.26 ± 21.20 (n = 6) % Inh,"IC50 (CD69+B220+ cells; Splenocyte, mouse splenocytes): 117 ± 83.6 nM"
−5.59,"Nc1ncnc2c1c(-c1cc(O)c(F)c(C(F)(F)F)c1)nn2C1Cc2ccccc2C1 [Compound No. 102, 5-[4-amino-1-(2,3-dihydro-1H-inden-2-yl)-1H-pyrazolo[3,4-d]pyrimidin-3-yl]-2-fluoro-3-(trifluoromethyl)phenol]",81.06 ± 20.76 (n = 7) % Inh,"IC50 (CD69+B220+ cells; Splenocyte, mouse splenocytes): 191 ± 120 nM"
6.31,"COc1cc(-c2nn(C3Cc4ccccc4C3)c3ncnc(N)c23)ccc1C [Compound No. 49, 1-(2,3-dihydro-1H-inden-2-yl)-3-(3-methoxy-4-methylphenyl)-1H-pyrazolo[3,4-d]pyrimidin-4-amine]",16.42 ± 20.45 (n = 9) % Inh,
,"Nc1ncnc2c1c(-c1ccc(F)c(O)c1)nn2C1CCc2ccccc2C1 (single isomer, unassigned) [Compound No. 26b, 5-(4-amino-1-(1,2,3,4-tetrahydronaphthalen-2-yl)-1H-pyrazolo[3,4-d]pyrimidin-3-yl)-2-fluorophenol]",,"CD69 @ 100 nM (% Inh) (CD69+B220+ cells; mouse splenocytes, 0.1 µM): 11.62 ± 20.93 (n = 5) % Inh; IC50 (ITK): 51600 nM"
108.85,"Nc1ncnc2c1c(-c1ccc(Cl)c(O)c1)cn2C1Cc2ccccc2C1 [Compound No. 93, 5-[4-amino-7-(2,3-dihydro-1H-inden-2-yl)-7H-pyrrolo[2,3-d]pyrimidin-5-yl]-2-chlorophenol]",−19.68 ± 39.78 (n = 5) % Inh,
3.68,"Nc1ncnc2c1c(-c1cc(O)cc(F)c1)cn2C1Cc2ccccc2C1 [Compound No. 63, 3-[4-amino-7-(2,3-dihydro-1H-inden-2-yl)-7H-pyrrolo[2,3-d]pyrimidin-5-yl]-5-fluorophenol]",21.07 ± 27.71 (n = 9) % Inh,
17.1,"C=CC(=O)N1CC(n2nc(-c3cc(O)cc(F)c3)c3c(N)ncnc32)Cc2cc(C)ccc21 (stereo not drawn) [compound 31, 1-(3-(4-amino-3-(3-fluoro-5-hydroxyphenyl)-1H-pyrazolo[3,4-d]pyrimidin-1-yl)-6-methyl-3,4-dihydroquinolin-1(2H)-yl)prop-2-en-1-one]",,IC50 (ITK): > 100000 nM
